In one assay the test system is rat eyes. Conditions: cited from earlier work.
In assay [1] the test system is panel of 5 experienced testers. As to the kind of experiment: Long lasting cooling sensation: panel evaluation of toothpaste compositions. The assay is classed as in vivo, human. Conditions: added to standard toothpaste. The procedure:
Phenylalkennals and homovanillic acid esters were added alone and in combination to a standard toothpaste composition. A panel of 5 experienced testers evaluated the compositions with regard to initial cooling effect during brushing, directly after brushing and the long last effect after 5 and after 10 minutes. The evaluation was done according to a score card from 1=almost no cooling effect to 10=strong cooling sensation. Example 1 is according to the invention, examples C1 to C3 serve for comparison.

Consider `CCCOC(=O)Cc1ccc(O)c(OC)c1` [II-17, Propyl-2-(4-hydroxy-3-methoxyphenyl) acetate], for which, in the assay on rat eyes, the “Pain sensation in rat eyes (assessment in words)” value (from here on “Pain sensation in rat eyes”) is “active”. In the case of `C/C=C(/C=O)c1ccccc1` [Phenylbutenal, 2-Phenyl-but-2-enal], in assay [1], the “Cooling sensation during and directly after brushing (in words)” value is “improves the cooling sensation during and directly after brushing”; the “Long lasting cooling sensation after 5 and after 10 minutes (in words)” value is “does not have any long lasting effect”. In the case of `CCCCCCCCCCCCOC(=O)Cc1ccc(O)c(OC)c1` [dodecyl ester of homovanillic acid], in the assay on rat eyes, the “Pain sensation in rat eyes” value is given as “active”.

As to `COC(=O)Cc1ccc(O)c(OC)c1` [methyl ester of homovanillic acid], the “Pain sensation in rat eyes” value in the assay on rat eyes is given as “active”.

Regarding `CCCCCCCCCOC(=O)Cc1ccc(O)c(OC)c1` [nonyl ester of homovanillic acid], the “Pain sensation in rat eyes” value with rat eyes is “active”. `CCCCCCCCOC(=O)Cc1ccc(O)c(OC)c1` [octyl ester of homovanillic acid]: in the assay with rat eyes, the “Pain sensation in rat eyes” value is reported as “active”.

The record behind these values is patent publication US20230059747A1, “A COOLING PREPARATION” (SYMRISE AG, priority 2019, published 2023).
